Experimental data reported in US20240197891A1, “PHARMACEUTICAL COMPOSITIONS COMPRISING POH DERIVATIVES” (UNIVERSITY OF SOUTHERN CALIFORNIA, priority 2021, published 2024).
Blank lines part the entries; values can stand above or below the molecule they belong to.

Assays:
U251 human glioma cells = experiment: MTT cytotoxicity assay, U251 cells
Description: (§1) In vitro efficacy of the present composition can be determined using methods well known in the art. For example, the cytotoxicity of the present monoterpene (or sesquiterpene) and/or the therapeutic agents may be studied by MTT [3-(4,5-dimethylthiazol-2-yl)-2,5-diphenyl tetrazolium bromide] cytotoxicity assay. MTT assay is based on the principle of uptake of MTT, a tetrazolium salt, by metabolically active cells where it is metabolized into a blue colored formazan product, which can be read spectrometrically. J. of Immunological Methods 65: 55 63, 1983. The cytotoxicity of the present monoterpene (or sesquiterpene) derivative and/or the therapeutic agents may be studied by colony formation assay. Functional assays for inhibition of VEGF secretion and IL-8 secretion may be performed via ELISA. Cell cycle block by the present monoterpene (or sesquiterpene) derivative and/or the therapeutic agents may be studied by standard propidium iodide (PI) staining and flow cytometry. Invasion inhibition may be studied by Boyden chambers. In this assay a layer of reconstituted basement membrane, Matrigel, is coated onto chemotaxis filters and acts as a barrier to the migration of cells in the Boyden chambers. Only cells with invasive capacity can cross the Matrigel barrier. Other assays include, but are not limited to cell viability assays, apoptosis assays, and morphological assays.
(§2) To compare the cytotoxicity of Rolipram POH Carbamate (POH-Rolipram) (e.g., synthesized by the method in Example 5) with rolipram, […] inducing differentiation and apoptosis in glioma cells, A172, U87, U251 and LN229 human glioma cells were treated with either POH-Rolipram or rolipram for 48 hours.
MTT cytotoxicity assays were carried out after cells were treated with the TMZ-POH conjugate. The MTT cytotoxicity assays were carried out as described in Chen T C, et al. Green tea epigallocatechin gallate enhances therapeutic efficacy of temozolomide in orthotopic mouse glioblastoma models. Cancer Lett. 2011 Mar. 28; 302(2):100-8.

U87 human glioma cells = experiment: MTT cytotoxicity assay, U87 cells; assay type: cell-based; conditions: Homo sapiens, U-87 MG, U-87 cells, 48 hours
Description: as §1, with “assays. […]” for “assays.”

A172 human glioma cells = experiment: MTT cytotoxicity assay, A172 cells; assay type: cell-based; conditions: Homo sapiens, A-172 cells, 48 hours
Description: as §1, with “assays. […]” for “assays.”

LN229 human glioma cells = experiment: cells; conditions: Homo sapiens, LN-229, 48 h
Description: as §1, §2

IL-1β = experiment: Serum IL-1β following UV exposure; assay type: in vivo, mouse
Protocol: (§3) SKH-1 hairless mice were treated with 10 mg/kg POH-LA conjugate freshly prepared daily. The POH-LA conjugate was formulated in glycerol:ethanol (90:10) while the control animals received the glycerol:ethanol vehicle only or the commercially available sunblock (Well & Good Sun Protection Wipes SPF 15). Additional test groups were treated with POH formulated in the glycerol:ethanol vehicle or linoleic acid formulated in the glycerol:ethanol vehicle. 50 μL of each formulation was placed on a area 1 cm^2 area that was exposed to the UV light. The mice were treated with their respective formulations after exposure to the UV light. In FIG. 22A, the mouse was treated with sunblock. In FIG. 22B, the mouse was treated with POH. In FIG. 22C, the mouse was treated with linoleic acid. In FIG. 22D, the mouse was treated with POH-LA conjugate. In FIG. 22D, the mouse was treated with the glycerol:ethanol vehicle only. The POH-LA conjugate, POH or linoleic acid solutions were gently spread on the skin surface and allowed to air dry. The sunblock mouse was gently wiped on the exposure area with the sunblock towelette. This exposure and treatment went on for a maximum of 10 weeks. Throughout the experimental period the animals were photographed and weighed. At the end of the experimental period the mice were photographed and euthanized, followed by skin and blood collection. Blood was analyzed for markers of inflammation and DNA recovered from the exposed area of the skin and analyzed for markers of DNA damage.
(§4) Furthermore, blood samples were taken from each mouse 4 hours after the last cutaneous treatment. About 0.5 mL of blood was collected by cardiac puncture […]. Serum was aliquoted in Eppendorf tubes and store at −80° C. as preparation for cytokine analyses. […]
(§5) Mice were treated with 10 mg/kg POH-LA conjugate freshly prepared daily. […] Blood was analyzed for markers of inflammation and DNA recovered from the exposed area of the skin and analyzed for markers of DNA damage.

IL-6 = experiment: Serum IL-6 following UV exposure; assay type: in vivo, mouse
Protocol: as §3, with “In FIG. 22D, the mouse was treated with the glycerol:ethanol vehicle only.” left out
as §4, §5

UV-B exposed skin = experiment: UV-B induced skin damage in SKH-1 hairless mice; assay type: in vivo, mouse; conditions: topical post exposure
Protocol: (§6) FIG. 23 illustrates the simulation of sunlight by irradiation with UVB lamps (310 nm). The irradiation was conducted in a phototoxicity testing chamber and fitted with a UV-B lamp providing with a spectral output of approximately 310 nm. The source of UVR was a short-wavelength UV lamp (VWR. Radnor, PA). The peak spectral output of this lamp was approximately 310 nm, with no energy detectable below 260 nm, approximately 0.6% between 260 and 280 nm (UV-C), 72.7% between 280 and 320 nm (UV-B), and 26.7% between 320 and 400 nm (UV-A). Radiation dosage of UV-B per irradiation was set at 54 mJ/cm^2 for the first week, 72 mJ/cm^2 for the second week, 90 mJ/cm^2 for the third week, and 108 mJ/cm^2 for the remaining weeks, as confirmed by a UV monitor. Each irradiation event was 10 minutes long.
POH-LA conjugate, linoleic acid, POH, and the additive combination of linoleic acid and POH were each suspended in glycerol:ethanol (90:10 vol/vol) to a final concentration of 10 nM with 50 μL and applied to each SKH-1 hairless mouse post UV-B exposure for treatment. The sunblock mouse was gently wiped on the exposure area with the sunblock towelette. […] In FIG. 23B, the mice were treated with the glycerol:ethanol vehicle only. In FIG. 23C, the mice were treated with POH. In FIG. 23D, the mice were treated with linoleic acid. In FIG. 23E, the mice were treated with an mixture of linoleic acid and POH. In FIG. 23F, the mice were treated with POH-LA conjugate. In FIG. 23G, the mice were treated with sunblock. The application of POH-LA conjugate to UV-B exposed tissue limits the amount of observable skin damage as compared to the untreated control (B) or the individual components of POH-LA conjugate either alone (POH—C and LA—D), in mixture (E), or with sunblock (G).
as §6, with “FIGS. 24A-D illustrates the” for “FIG. 23 illustrates the”, “UV lamp (VWR, Radnor, PA).” for “UV lamp (VWR. Radnor, PA).”, “second week, and 90 mJ/cm^2” for “second week, 90 mJ/cm^2”, “third week, as confirmed” for “third week, and 108 mJ/cm^2 for the remaining weeks, as confirmed”, “UV monitor.” for “UV monitor. Each irradiation event was 10 minutes long.”
POH-LA conjugate (FIG. 24A), linoleic acid (FIG. 24B), POH (FIG. 24C), and the additive combination of linoleic acid and POH (FIG. 24D) were each suspended in glycerol:ethanol (90:10 vol/vol) to a final concentration of 10 nM with 50 μL applied to each mouse post UV-B exposure for treatment. The application of POH-LA conjugate to UV-B exposed tissue limits the amount of observable skin damage as compared the individual components of POH-LA conjugate either alone or in mixture.
as §6, with “This example” for “FIG. 23”, “nm)” for “nm). The irradiation”, “(VWR,” for “(VWR.”, “monitor.” for “monitor. Each irradiation event was 10 minutes long.”
POH-LA conjugate, linoleic acid, POH, and the additive combination of linoleic acid and POH were each suspended in glycerol:ethanol (90:10 vol/vol) to a final concentration of 10 nM with 50 μL applied to each mouse post UV-B exposure for treatment. […]

TNF-α = experiment: Serum TNF-α following UV exposure; assay type: in vivo, mouse
Protocol: as §3, §4, §5

[1] = tested on: USC-04 glioma cancer stem cells; experiment: MTT cytotoxicity assay, USC-04 glioma cancer stem cells; assay type: cell-based; conditions: USC-04; increasing concentrations (TMZ 0-400 uM; POH 0-2 mM)
Description: (§7) Cancer Lett. 2011 Mar. 28; 302(2):100-8.

[2] = tested on: TMZ sensitive (U251) cells; experiment: Colony forming assay, TMZ sensitive U251 cells; assay type: cell-based, human; conditions: TMZ sensitive U251 cells
Protocol: (§8) Colony forming assays were carried out after cells were treated with TMZ alone, POH alone, and the TMZ-POH conjugate. […] Cancer Lett. 2011 Mar. 28; 302(2):100-8.

[3] = tested on: TMZ resistant (U251TR) U251 cells; experiment: Colony forming assay, TMZ resistant U251TR cells; assay type: cell-based, human
Protocol: as §8

[4] = tested on: USC-02 glioma cancer stem cells; experiment: MTT cytotoxicity assay, USC-02 glioma cancer stem cells; assay type: cell-based; conditions: USC-02; increasing concentrations (TMZ 0-400 uM; POH 0-2 mM)
Description: as §7

[5] = tested on: human malignant glioma cells U87, A172 and U251; experiment: MTT cytotoxicity assays on U87, A172 and U251 cells (stated jointly); assay type: cell-based
Protocol: J. of Immunological Methods 65: 55 63, 1983. […] Invasion inhibition may be studied by Boyden chambers.
Then U87, A172 and U251 cells were treated with dimethyl celecoxib bisPOH carbamate (POH-DMC) (e.g., synthesized by the method in Example 1), and the MTT cytotoxicity assays performed (FIG. 2).
Then TMZ-resistant glioma cell lines U87, A172 and U251 cells were treated with temozolomide POH carbamate (POH-TMZ) (e.g., synthesized by the method in Example 3).

IC50 (LN229 human glioma cells): > 100 µM
SMILES: COc1ccc(C2CNC(=O)C2)cc1OC1CCCC1 (stereo not shown) [rolipram, reference compound]
plateau cytotoxicity (U251 human glioma cells): 60%
IC50 (U251 human glioma cells; Homo sapiens, U-251, 48 h): 170 µM
IC50 (U87 human glioma cells): > 1000 µM
IC50 (A172 human glioma cells): ~1000 µM

SMILES: CCCCC/C=C\C/C=C\CCCCCCCC(=O)O [linoleic acid]
IL-1β serum levels increase (IL-1β): 8.3 ± 2.1 pg/mL
IL-6 levels (IL-6): 18.3 ± 3.4 pg/mL
observable skin damage (UV-B exposed skin; 3 weeks of UV-B exposure and treatment): displayed damage
observable skin damage (UV-B exposed skin; 5 weeks of UV-B exposure and treatment): displayed damage
TNF-α levels (TNF-α): 126.9 ± 14.6 pg/mL

SMILES: Cn1nnc2c(C(N)=O)ncn2c1=O [TMZ, temozolomide]
cytotoxicity (MTT) [1]: did not induce significant cytotoxicity
cytotoxicity (colony forming assay) [2]: demonstrated cytotoxicity
cytotoxicity (colony forming assay) [3]: minimal cytotoxicity
cytotoxicity (MTT) [4]: did not induce significant cytotoxicity
cytotoxicity / kill rates (MTT) [5]: minimal cytotoxicity

SMILES: C=C(C)C1CC=C(COC(=O)N(C(=O)OCC2=CCC(C(=C)C)CC2)S(=O)(=O)c2ccc(-n3nc(C(F)(F)F)cc3-c3cc(C)ccc3C)cc2)CC1 (stereo not shown) [POH-DMC]
cytotoxicity / kill rates (MTT) [5]: much better cytotoxicity than DMC alone
